Test results: patent US20230365570A1, “COMPOUNDS WITH GLUCOCORTICOID SPARING EFFECTS AND USES THEREOF” (The Regents of the University of California, priority 2020, published 2023)

Key:
[1] = tested on: THP-1 cells; experiment: TNF stimulated CXCL8 release by THP-1 cells; type: cell-based, human; details: TNF 2 ng/ml, overnight (FIG. 3B)
Procedure: (§1) THP-1 cells (10^5 cells/200 μL/well) and RA FLS (104/200 μL/well) were plated in 96 well plates and pre-treated with compound or vehicle for 1 h and then stimulated with either LPS (10 ng/ml), 1L-1ß (2 ng/ml) or TNF (2 ng/ml for THP-1 and 1 ng/ml for RA FLS). After 18 h of incubation, supernatants were collected and the levels of cytokines and chemokines in the culture supernatants were measured by ELISA according to the manufacturer's protocols (R&D systems, Minneapolis, MN).
(§2) The lead compounds belonging to chemotypes 1, 3, and 5 were tested for potency in suppressing chemokine and cytokine production by THP-1 cells in the presence of different inflammatory stimuli. The production of CXCL8 induced by either LPS (10 ng/ml), IL-1ß (2 ng/ml), or TNF (2 ng/ml) and TNF induced by IL-1ß (2 ng/ml) was assessed using serially diluted compounds. The compounds except 1-2 reduced the level of CXCL8 production stimulated by LPS in a dose dependent manner (FIG. 3A). However, the compounds from chemotype 5 enhanced CXCL8 release by THP-1 cells when stimulated with IL-111, or TNF (FIGS. 3B, C). […] The 1Cs0 for 1-1, 1-2 and 3-1 for IL-1ß stimulated CXCL8 release included 400, 1770, and 2020 nM, respectively, (FIG. 3C).

[2] = tested on: THP-1 cells; experiment: Cell viability by MTT assay in THP-1 cells; type: cell-based, human; details: for Cellular viability (% Viability compared to Veh): 10 uM (FIG. 8B)
Procedure: Two types of tetrazolium were used for viability assays. […] After 18 h of incubation, 0.5 mg/ml 3[4,5-dimethylthiazol-2-yl]-2,5-dipheyl tetrazolium bromide (MTT; Thermo Fisher Scientific) in assay media was added to each well at a final concentration of (0.5 mg/ml) and further incubated for 4-6 h. The absorbances at 570 and 650 nm were measured by a Tecan Infinite M200 plate reader, For RA FLS, the cells were dispersed into 96-well flat bottom plates (104/200 μL/well) and incubated overnight. The next day, RA FLS were treated with 5 μM of each compound for 18 h of incubation. Ten μl of WST-8 [2-(2-methoxy-4-nitrophenyl)-3-(4-nitrophenyl)-5-(2,4-disulfophewnyl)-2H-tetrazolium, monosodium salt] solution was added to each well and the cells were further incubated for 2-4 h. The absorbance was measured at 450 nm with Bio-Rad iMark plate reader (Bio-Rad Laboratories Inc., Hercules, CA, Unites States).

[3] = tested on: THP-1 cells; experiment: IL-1ß stimulated CXCL8 release by THP-1 cells; type: cell-based, human; details: IL-1ß 2 ng/ml, overnight (FIG. 3C)
Procedure: as §1, §2

[4] = tested on: THP-1 cells; experiment: CXCL8 production by LPS stimulated THP-1 cells (ELISA); type: cell-based, human; details: LPS 10 ng/ml, purchased compound, mean LPS CXCL8 201.1 pg/ml = 100%
Procedure: as §1
The 122 hit compounds underwent additional screening and were evaluated for their effects on cell viability and the ability to suppress production of an NF-κB-associated chemokine, CXCL8 (IL-8) by LPS stimulated THP-1 cells (FIG. 2D). The cells were also examined for viability after 24 h of stimulation by MTT assay (FIG. 2E).
Three of the eleven chemotypes were excluded based on the potential for them to be Michael acceptors, In many cases α,β-unsaturated carbonyls such as those found in these chemotypes can form adducts with thiols, especially under physiological conditions (pH=6-8), reducing the in vivo efficacy. Also, Michael acceptors are often […] IKKß inhibitors and thereby inhibit NF-KB response. […]

[5] = tested on: THP-1 cells; experiment: IL-1ß stimulated TNF release by THP-1 cells; type: cell-based, human
Procedure: as §1, §2

[6] = tested on: THP-1 cells; experiment: Combination and synergy of compounds with DEX, CXCL8 release by TNF stimulated THP-1 cells; type: cell-based, human
Procedure: Drug synergy analysis was performed using lsobologram plots which were calculated according to reported procedures to compute IC50 and determine synergism. IC50 is computed from the median effect equation. Synergism analysis is carried out using the Combination index (Cl)-isobol method. Data analysis was performed using the CompuSyn software available on combisyn.com, Detailed methodology was used as described in a prior report. Briefly, the median-effect equation is computed to obtain the linear regression for the effect of inhibitors DEX and 1−1 as Fa/Fu=(D/D50)^m, where D is the dose; Fa and Fu is the fraction of the inhibition and uninhibited response by the dose D (Fa+Fu=1); D50 is the dose producing the median effect (i.e, IC50). The constant m determines the shape of the dose-effect curve. The median-effect equation in logarithmic form is log (Fa/Fu) =m log(D)−m log (D50) which essentially represents a linear relationship between log(Fa/Fu) and log(D). […] This is followed by Cl-isobol method to quantitatively assess the synergism between these inhibitor drugs. A combination index (Cl) is estimated from dose-effect data of single and combined drug treatments. A value of C; less than one indicates synergism; Cl=1 indicates additive effect; and Cl>1 indicates antagonism. Drug interaction (synergism or antagonism) is more pronounced the further a CI value is from 1. […] The doses Dx1 and Dx2 were estimated from the median effect equation above for single drug treatments. From the median effect equation, the estimated dose (i.e., D) necessary to produce the inhibition (i.e., Fa, Fu) obtained by the combination was calculated. The results are presented as a normalized isobolograrn. A point in the isobologram represents the effect of a drug(s) treatment.
To assess whether the remaining candidate compounds would provide additional benefit to a low dose of glucocorticoid, THP-1 cells were stimulated with TNF and treated them with serially diluted compounds and 100 nM DEX (FIGS. 4A-C). […] Next whether there was an additive or synergistic effect with these three compounds and DEX was formally addressed. […] The four CXCL8 levels below the maximum plateau were used to calculate an isobologram (FIG. 5D).

[7] = tested on: mBMDCs; experiment: IFNβ induced by DMXAA in mBMDCs; type: cell-based, mouse; details: for IFNβ induced by DMXAA: mBMDCs (FIG. 9F)
Procedure: (§3) FIGS. 9A-9F show the partial STING dependent activity of nitrofuranylamide compounds 4, 5 and 6 and inhibition of TLR pathways.
(§4) Since the synthesized compounds were identified via assays in human cells, there was interest in verifying the potency of these compounds in murine cells. Compounds were incubated with murine bone marrow-derived dendritic cells (BM DCs) obtained from wild-type (WT) mice and STING null (Tmem173^−/−) mice as STING had been reported as the target of other nitrofuranylamides. […] To compare these compounds, the IC50 values of these compounds were assessed in dose titration studies.

[8] = tested on: murine bone marrow-derived dendritic cells (BMDCs); experiment: TNF-α and IP-10 induction by TLR and STING ligands in murine BMDCs; type: cell-based, mouse; details: BMDCs from WT and Tmem173-/- mice (FIGS. 9A-D)
Procedure: as §3, §4

[9] = tested on: mice; experiment: K/BxN serum induced arthritis and allodynia in mice; type: in vivo, mouse
Procedure: FIGS. 10A-10D show the in vivo activity of compound 5 in WT and STING knock-out Tmem173^−/− mice. Mice were induced with K/B×N serum on days 0 and 2 to have arthritis and related pain. Compound 5 was administered (750 nmol) IP BID on days 0-5. […] (B) These effects of compound 5 are not seen in similarly treated Tmem173−/− mice. Mechanical allodynia is measured with monofilaments in a von Frey assay and increase in pain perception by the animal is recorded as a drop in the threshold. *P<0.0001 by two-way ANOVA.

[10] = tested on: NF-κB; experiment: NF-κB activation assay in LPS stimulated CellSensor NF-κB-bla THP-1 reporter cells; type: cell-based, human; details: 5 h and 16 h time points
Procedure: In the presence of lactamase, CCF4 was enzymatically cleaved and excitation at 409 nm produced a blue fluorescence signal (at 450 nm), The CellSensor® NF-κB-bla THP-1 cells were dispersed in 96-well plates (5×10^4 cells/200 μL/well) and incubated for 4 h, Then the cells were treated with 5 μM of each compound and 10 ng/ml of LPS for 5 or 12 h in 5% CO2 at 37° C. After incubation, the ß-lactamase substrate mixture (prepared according to the manufacturer's protocol) was added to each well. Plates were incubated at room temperature in the dark for 2 h. Fluorescence was measured on a Tecan Infinite M200 plate reader (Tecan, Mannedorf, Switzerland) at an excitation wavelength of 405 nm and emission wavelengths of 465 and 535 nm. Emission ratios are calculated by dividing values from emission wavelength of 465 nm by those from emission wavelength of 535 nm, The response ratio was calculated as follows [(emission ratio of a test well)/average emission ratio of wells with vehicle (0.5% DMSO)] and values were normalized to the LPS control treated wells [response ratio of the compound/response ratio of LPS].
Using LPS as a primary inflammatory stimulus the effect of these compounds on NF-κB activity was evaluated at two time points to profile the kinetics of their suppression.

[11] = WT mice, 750 nmoles IP BID for 6 days

| Molecule | IFNβ induced by DMXAA [7] | Cellular viability (% Viability compared to Veh) [2] | mIP-10 production induced by TLR4 (LPS), TLR7 (1V270) and STING (DMXAA) ligands [8] | mTNF-a production induced by TLR4 (LPS), TLR7 (1V270) and STING (DMXAA) ligands [8] | TNF release when stimulated with IL-1ß ([5]; THP-1 cells) | also measured |
| --- | --- | --- | --- | --- | --- | --- |
| CCCCNc1ncnc2c1cnn2-c1ccc(C)cc1C [Compound 1-2] | – | – | – | – | – | IC50 [1]: 4130 nM; % Cellular Viability (Purchased) ([2]; purchased compound): 100.1%; IC50 [3]: 1770 nM; CXCL8 production. Relative to LPS (purchased) [4]: 70.1%; IC50 ([5]; THP-1 cells, IL-1ß 2 ng/ml, overnight (FIG. 3D)): 2770 nM; Effect of addition of DEX on CXCL8 production ([6]; TNF 2 ng/ml stimulated THP-1 cells, serially diluted compound plus 100 nM DEX (FIGS. 4A-C)): only effective at the lower doses; Synergy with DEX, isobologram of potency ratios for CXCL8 ([6]; TNF stimulated THP-1 cells, compound and DEX titrated at same molarity (FIG. 5D)): modestly synergistic |
| CCOc1ccc(NC(=O)c2ccc([N+](=O)[O-])o2)cc1 [Compound 4] | Dose-dependent inhibition | approximately 100% | inhibited | inhibited | Dose-dependent inhibition | – |
| O=C(Nc1cccc(C(F)(F)F)c1)c1ccc([N+](=O)[O-])o1 [Compound 5] | Dose-dependent inhibition | approximately 100% | inhibited | inhibited | Dose-dependent inhibition | Cytokine inhibition IC50, mouse cell studies ([7]; mBMDCs stimulated with DMXAA, IFNβ (FIG. 9F)): nanomolar (nM) range; Pain or swelling in Tmem173-/- mice ([9]; Tmem173-/- mice, 750 nmol IP BID): no statistically significant effect; Acute inflammation in the ankle (ankle thickness) [9, 11]: modest effect; Mechanical allodynia (von Frey filaments) [9, 11]: significantly reduced; Cytokine inhibition IC50, human cell studies ([5]; THP-1 cells stimulated with IL-1β, TNF-a (FIG. 9E)): nanomolar (nM) range |
| O=C(Nc1cc([N+](=O)[O-])ccc1Cl)c1ccc([N+](=O)[O-])o1 [Compound 6] | Dose-dependent inhibition | approximately 100% | inhibited | inhibited | Dose-dependent inhibition | – |
| C[C@@H]1C[C@H]2[C@@H]3CCC4=CC(=O)C=C[C@]4(C)[C@@]3(F)[C@@H](O)C[C@]2(C)[C@@]1(O)C(=O)CO [DEX, dexamethasone, reference compound] | – | – | – | – | – | IC50 ([6]; Homo sapiens, TNF stimulated THP-1 cells, single agents (FIG. 5A), read-out: IC50 for TNF stimulated CXCL8 release (titration with DEX)): 300 nM |
| NC(=O)Nc1sc(-c2ccc(F)cc2)cc1C(N)=O [UTC, 5-(4-fluorophenyl)-2-ureidothiophene-3 carboxylic acid amide] | – | – | – | – | – | Inhibition of NF-κB activity [10]: inhibited NF-κB activity at both time points |
| polymyxin B | – | – | – | – | – | Inhibition of NF-κB activity [10]: suppressed NF-κB activity at both timepoints |
